Where two headings read alike, the source gives them in different places.
Legend:
Format in all cases: cell-based, human
Aβ = Aβ pathology (Aβ amount in medium) in cerebral cortex nerve cells induced from FAD1 patient iPS cells; settings: for Aβ lesion (Aβ amount) / Aβ pathology: FAD1 nerve cells; for Aβ lesion (Aβ amount): compounds added 8 days after differentiation induction, Aβ amount two days later; for Aβ pathology: low dose
Text: To perform induction from iPS cells to the cerebral cortex nerve early and with high reproducibility, iPS cells introduced with human Neurogenin 2 gene (NGN2) linked to doxycycline-inducible promoter by using PiggyBac were used (FIG. 1a, FIG. 1b, FIG. 4a and FIG. 4b). IPS cells prepared from 4 patients with familial Alzheimer's disease (FAD), 2 patients with sporadic Alzheimer's disease (SAD) and 4 healthy individuals (HC) were used. The iPS cells were established by the method described in Okita K et al., Nature. […]
(§1) To further study reproducibility of the candidate drugs obtained by the primary screening, secondary screening was conducted. In addition to Aβ40, Aβ42, Aβ42/40 ratio, Aβ38, Aβ43, sAPPα, sAPPβ were also studied and each numerical value was obtained.

Aβ40 = settings: secondary screening, FAD1 iPS cell-derived nerve cells, numerical value (Aβ change rate)
Text: To perform induction from iPS cells to the cerebral cortex nerve early and with high reproducibility, iPS cells introduced with human Neurogenin 2 gene (NGN2) linked to doxycycline-inducible promoter by using PiggyBac were used (FIG. 1a, FIG. 1b, FIG. 4a and FIG. 4b). IPS cells prepared from 4 patients with familial Alzheimer's disease (FAD), 2 patients with sporadic Alzheimer's disease (SAD) and 4 healthy individuals (HC) were used. The iPS cells were established by the method described in Okita K et al., Nature.
Structural formulas (those in the form of salt or halide are also described as free form) and the general names of the candidate compounds are shown in Table 1.
as §1

Aβ42 = Aβ42 in FAD1 iPS cell-derived nerve cells (primary/secondary screening, dose dependency)
Outline: (§2)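 Cerebral cortex neurons were induced from FAD1 patient iPS cells by doxycycline-inducible NGN2, delivered by PiggyBac. Aβ40 and Aβ42 in the culture medium gave the Aβ42/40 ratio, with dose dependency examined in primary and secondary screens. The secondary screen also covered Aβ38, Aβ43, sAPPα and sAPPβ.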

Aβ42/40 ratio = Aβ42/40 ratio in FAD1 iPS cell-derived nerve cells (primary/secondary screening, dose dependency); settings: secondary screening
Outline: as §2

Aβ38 = Aβ38 in FAD1 iPS cell-derived nerve cells (secondary screening); design: scale not given here
Description: as §1

Aβ43 = Aβ43 in FAD1 iPS cell-derived nerve cells (secondary screening); design: scale not given here
Description: as §1

sAPPα = sAPPα in FAD1 iPS cell-derived nerve cells (secondary screening); design: scale not given here
Description: as §1

sAPPβ = sAPPβ in FAD1 iPS cell-derived nerve cells (secondary screening); design: sAPPβ: scale not given here
Description: as §1

[1] = secondary screening, FAD1 iPS cell-derived nerve cells, numerical value (Aβ change rate)
[2] = secondary screening, FAD1 iPS cell-derived nerve cells

Compound | Aβ42 (Aβ42; [1]) | Ratio Aβ42/40 (Aβ42/40 ratio) | Aβ38 (Aβ38) | Aβ43 (Aβ43) | sAPPα (sAPPα; [2]) | sAPPβ (sAPPβ; [2]) | also measured
COc1cc(C)c(/C=C/C(C)=C/C=C/C(C)=C/C(=O)O)c(C)c1C [acitretin] |  |  |  |  |  |  | Aβ lesion (Aβ amount) (Aβ): improved Aβ lesion
CC(C(=O)O)c1ccc(-c2ccccc2)c(F)c1 (stereo not drawn) [Flurbiprofen] |  |  |  |  |  |  | Aβ pathology (Aβ): not improved
DESOXYCORTICOSTERONE [compound 98] | 0.9 | 0.9 | 1.09 | 0.89 | 0.88 | 0.87 | Aβ40 (Aβ40): 1
CN[C@H](CC(C)C)C(=O)N[C@H]1C(=O)N[C@@H](CC(N)=O)C(=O)N[C@H]2C(=O)N[C@H]3C(=O)N[C@H](C(=O)N[C@H](C(=O)O)c4cc(O)cc(O)c4-c4cc3ccc4O)[C@H](O)c3ccc(c(Cl)c3)Oc3cc2cc(c3O[C@@H]2O[C@H](CO)[C@@H](O)[C@H](O)[C@H]2O[C@H]2C[C@](C)(N)[C@H](O)[C@H](C)O2)Oc2ccc(cc2Cl)[C@H]1O [compound 105, VANCOMYCIN] | 1.06 | 1.05 | 1.29 | 1.2 | 1.33 | 1.36 | Aβ40 (Aβ40): 1.01
CC(C)C[C@H](C(=O)O)c1cc(-c2ccc(C(F)(F)F)cc2)cc(-c2ccc(C(F)(F)F)cc2)c1 [JNJ-40418677] |  |  |  |  |  |  | Aβ lesion (Aβ amount) (Aβ): improved Aβ lesion
TELITHROMYCIN [compound 108] | 0.85 |  |  | 0.84 | 0.71 | 0.68 | Aβ40 (Aβ40): 0.99
NCCc1ccc(O)c(O)c1 [compound 90, DOPAMINE] | 0.88 | 0.92 | 1.01 | 0.96 | 0.91 | 0.95 | Aβ suppressive effect (dopamine series) (Aβ; neuron derived from iPS cell (FAD1)): show effects
BITOSCANATE [compound 123] | 0.89 | 0.96 | 1.01 | 1 | 0.76 | 0.73 | Aβ40 (Aβ40): 0.93
RIFAXIMIN [compound 97] | 0.84 | 0.91 | 1.09 | 0.92 | 0.91 | 0.95 | Aβ40 (Aβ40): 0.92
CC(C)[C@H](O)C(=O)N[C@@H](C)C(=O)N[C@@H]1C(=O)N(C)CCc2ccccc21 [semagacestat] |  |  |  |  |  |  | Aβ lesion (Aβ amount) (Aβ): improved Aβ lesion; Aβ42 (Aβ42; FAD1 nerve cells, low dose): increased
CINCHONINE [compound 24] | 0.88 |  |  | 0.81 | 0.76 | 0.68 | Aβ40 (Aβ40): 0.87
CEFAMANDOLE [compound 66] | 0.97 | 0.9 | 1.11 | 1.11 | 0.79 | 0.78 | Aβ40 (Aβ40): 1.08
CC1=C(CC(=O)O)c2cc(F)ccc2/C1=C\c1ccc([S+](C)[O-])cc1 (stereo not drawn) [sulindac] |  |  |  |  |  |  | Aβ pathology (Aβ): not improved
CC(C)C[C@H]1C(=O)N2CCC[C@H]2[C@]2(O)O[C@](NC(=O)[C@@H]3C=C4c5cccc6[nH]c(Br)c(c56)C[C@H]4N(C)C3)(C(C)C)C(=O)N12 [compound 52, BROMOCRIPTINE] | 0.63 | 0.64 | 0.97 | 0.65 | 1.18 | 0.79 | Aβ suppressive effect (dopamine series) (Aβ): show effects; action suggested from the sAPP metabolism (sAPPβ; sAPPα, sAPPβ, sAPPβ/α ratio): BSI-like action
Cc1ccc(NC(=O)c2ccc(CN3CCN(C)CC3)cc2)cc1Nc1nccc(-c2cccnc2)n1 [imatinib] |  |  |  |  |  |  | Aβ pathology (Aβ): not improved
CC(N)Cc1ccccc1 (stereo not drawn) [amphetamine] |  |  |  |  |  |  | Aβ suppressive effect (dopamine series) (Aβ): show effects
CC(NC(=O)c1cc(C(=O)NC(Cc2ccccc2)C(O)CNC2CC2)cc(N(C)S(C)(=O)=O)c1)c1ccccc1 (racemic) [RACE inhibitor IV] |  |  |  |  |  |  | Aβ lesion (Aβ amount) (Aβ): improved Aβ lesion

Compound | Aβ42 (Aβ42; [1]) | Ratio Aβ42/40 (Aβ42/40 ratio) | Aβ38 (Aβ38) | Aβ43 (Aβ43) | sAPPα (sAPPα; [2]) | sAPPβ (sAPPβ; [2]) | also measured
CCOC(=O)c1ccc(N)cc1 [compound 51, BENZOCAINE] | 0.94 | 1.03 | 1.05 | 0.99 | 0.8 | 0.87 | 
C=C[C@H]1CN2CC[C@H]1C[C@H]2[C@H](OC(=O)OCC)c1ccnc2ccc(OC)cc12 [compound 41, QUININE ETHYL CARBONATE] | 0.85 | 0.77 | 1.05 | 0.88 | 0.84 | 0.72 | 
CCN(CCO)CCCC(C)Nc1ccnc2cc(Cl)ccc12 (stereo not drawn) [compound 72, HYDROXYCHLOROQUINE] | 0.9 | 1.01 | 1.08 | 0.87 | 0.85 | 0.72 | 
CC1(C)C(C=C(Cl)Cl)C1C(=O)OC(C#N)c1cccc(Oc2ccccc2)c1 (stereo not drawn) [compound 38, CYPERMETHRIN] | 0.83 | 0.87 | 0.97 | 0.95 | 0.85 | 0.88 | 
CC(N=C(NC#N)Nc1ccncc1)C(C)(C)C (stereo not drawn) [compound 74] | 0.72 | 0.84 | 0.92 | 0.79 | 0.83 | 0.96 | 
CCC[C@H](N[C@@H](C)C(=O)N1[C@H](C(=O)O)C[C@@H]2CCCC[C@@H]21)C(=O)OCC [compound 64, PERINDOPRIL ERBUMINE] | 0.81 | 0.85 | 1.01 | 0.91 | 0.7 | 0.53 | 
CC(C)c1cccc(C(C)C)c1O [compound 87, PROPOFOL] | 0.88 | 0.91 | 0.99 | 0.88 |  |  | sAPPα (sAPPα): 0.94; sAPPβ (sAPPβ): 1
COc1cccc([C@@]2(O)CCCC[C@@H]2CN(C)C)c1 [compound 99, TRAMADOL] | 0.98 | 0.93 | 1.17 | 1.02 | 1.04 | 1.11 | 
CNCC[C@@H](Oc1ccccc1C)c1ccccc1 [compound 4, ATOMOXETINE] | 0.95 | 0.94 | 1.1 | 0.89 | 0.78 | 0.81 | 
CCn1cc(C(=O)O)c(=O)c2cnc(N3CCCC3)nc21 [compound 69, PIROMIDIC ACID] | 0.78 | 0.86 | 1.01 | 0.79 | 0.86 | 0.69 | 
C[C@H](CCC(=O)O)[C@H]1CC[C@H]2[C@@H]3C(=O)C[C@@H]4CC(=O)CC[C@]4(C)[C@H]3CC(=O)[C@]12C [compound 103, DEHYDROCHOLIC ACID] | 0.95 | 0.99 | 1.09 | 1.01 | 0.75 | 0.78 | 
Nc1ccc(S(=O)(=O)c2ccc(N)cc2)cc1 [compound 120, DAPSONE] | 0.83 | 0.84 | 1.06 | 0.8 | 0.74 | 0.6 | 
C[C@H](CS)C(=O)N1CCC[C@H]1C(=O)O [compound 57, CAPTOPRIL] | 0.87 | 0.94 | 1.09 | 0.86 | 0.91 | 0.91 | 
COc1cc2c(cc1OC)[C@@]13CCN4CC5=CCO[C@H]6CC(=O)N2[C@H]1[C@H]6[C@H]5C[C@H]43 [compound 106, BRUCINE] | 0.98 | 1.04 | 1.13 | 0.87 | 0.84 | 0.85 | 
Nc1c2c(nc3ccccc13)CCCC2 [compound 18, TACRINE] | 1 | 1.02 | 1.18 | 1.21 | 1.04 | 1.23 | 
O=c1oc2cc(O)ccc2s1 [compound 92, TIOXOLONE] | 0.55 | 0.83 | 0.76 | 0.67 | 0.76 | 0.63 | 

From US11026942B2, “Agent for preventing and/or treating Alzheimer's disease” (KYOTO UNIVERSITY, priority 2015, dated 2021)
